US20240100023A1, “Compositions and Methods For Treating Spinal Cord Injuries” (priority 2020, published 2024)

Columns and labels:
LTP in rat hippocampus = experiment: Induction of LTP in rat hippocampus in vivo; parameters: species or system Rat (Long Evans); settings: for Minimum Effective Dose, effect on induction of LTP in rat hippocampus: Rat (Long Evans), IP
Rat (Wistar) = experiment: Novel object recognition memory; format: in vivo; settings: for Minimum Effective Dose, novel object recognition memory: Rat (Wistar), IP
Experimental: Additional Novel Object Recognition behavioral model studies were conducted to further elucidate the SCI recovery activities of CX717 and CX1739. Rats were habituated to a test box for two 5-minute sessions on consecutive days. Each test session consisted of two phases: in the first phase (“sample period”), two identical objects (A1 and A2) were placed in the far corners of the box, and the rats were allowed to explore the objects. After a 24 hour delay, rats were re-introduced to the arena (“test period”) now containing a third identical copy of the familiar object (A3) and a new object (B), placed in the same locations as in the first phase, and the total time spent exploring each of the objects was determined over a 3-min duration. For CX717 drug treatment, rats were dosed 30 min prior to each sample session with either 0.1, 0.3, 1.0 mg/kg CX717 (p.o.); vehicle (0.5% methylcellulose, p.o.) or 0.9 mg/kg Aricept (E2020, i.p.). The exploration times for the full 3-min were calculated and expressed as the discrimination index, d1, defined as the absolute difference in time spent exploring the novel object minus the familiar object.
For CX1739 Male Wistar rats were assessed for cognitive ability in a test apparatus comprising an open-field arena placed in a sound-attenuated room under dimmed lighting. Rat exploration and activity were captured by a digital camera, and viewed on a monitor in an adjoining area. Following a 5-minute habituation period, each animal was placed in the test arena in the presence of two identical objects (plastic shapes) and the time spent actively exploring the objects during a 5-minute test period (T1) was recorded. After 24 hours, each rat was again placed in the test arena for 5 minutes (T2) in the presence of one familiar object and one novel object, and the time spent exploring both objects was recorded. The Recognition Index was calculated as the percentage of total exploration time spent exploring the novel object during the retention session (T2), which provides the primary measure of cognitive function in this assay.
The Novel object recognition (NOR) paradigm is a rodent model of recognition learning memory retrieval and takes advantage of the spontaneous behavior of rodents to investigate a novel object compared with a familiar object. NOR has been employed extensively to indicate cognition-enhancing properties of drug candidates, predictive of therapeutic efficacy of positively-assaying drugs for reducing SCI symptoms in humans.

Rat (SD) [1] = experiment: Radial arm maze - spatial memory; format: in vivo; settings: for Minimum Effective Dose, radial arm maze - spatial memory: Rat (SD), IP
Experimental: Yet another animal model for evaluating ampakine drug activity employed herein is the well-known and widely accepted Radial Arm Maze model. CX717 was tested for its ability to improve the performance of aged rats in an eight-arm radial maze using a cross-over design study. This behavioral test uses a standard eight-arm radial maze wherein five arms were open and baited with food pellets for the first morning session. Each animal was allowed to consume the food rewards present in the open arms and was then returned to its home cage. Six hours later animals were returned to the maze, wherein all eight-arms were open, but only the three arms previously closed contained food rewards. Scoring was based on the number of correct choices before an incorrect choice (re-entering an arm that was visited during the morning acquisition session) was made and on the total number of incorrect choices made before all three of the still baited arms were visited. CX717 was tested at six doses (0.03, 0.1, 0.3, 1, 3 and 10 mg/kg in hydroxypropyl β-cyclodextran, i.p.), administered 30 min prior to the start of the morning acquisition session and no drug was given prior to the second trial six hours later.
For CX1739 male Sprague-Dawley rats were trained to perform the win shift assay on the radial arm maze for approximately 10 weeks prior to the study. On each day of training and testing, each rat completed one trial, split into a sample phase and a test phase. During the sample phase, the rat was placed on a 12-arm radial arm maze surrounded by visual cues. Food wells at the end of each arm were baited with sucrose pellets but access to three arms, selected randomly, was blocked with a clear plastic divider at the arm entrance. The rat was allowed 5 minutes to search the maze and collect the available food pellets before being removed from the maze. Fifteen minutes later the rat was returned to the maze for the test phase of the trial. During the test phase, the rat was allowed access to all 12 arms of the maze but only the arms that had been blocked previously were baited with sucrose pellets. […]

Monkey (Rhesus) = experiment: Delayed match-to-sample test; format: in vivo, Rhesus macaque; settings: for Minimum Effective Dose, delayed match-to-sample test: Monkey (Rhesus), PO
Experimental: Further elucidating the potent behavioral and cognitive effects of exemplary ampakines useful within the invention, additional studies using the well-known Monkey Delayed Match to Sample assay were conducted. CX1739 was evaluated using aged Rhesus macaque monkeys (18 to 33 years old), undertaking the delayed match-to-sample (DMTS) task. The stimuli included red, blue, or yellow rectangles. A trial was initiated by presentation of a sample rectangle composed of one of the three colors. The sample rectangle remained in view until the monkey touched within its borders to initiate a pre-programmed delay (retention) interval. Following the delay interval, two choice rectangles were presented, with one of the two choice colors being the color matching the stimulus and the other (incorrect) color as one of the two remaining colors. A correct (matching) choice was reinforced. Non-matching choices were neither reinforced nor punished. The duration for each delay interval was adjusted for each subject until three levels of group performance accuracy approximated zero delay (85-100% of trials answered correctly), short delay interval (75-84% correct), medium delay interval (65-74% correct), and long delay interval (55-64% correct). The inter-trial interval was 5 seconds and each session consisted of 96 trials.

Rat (SD) [2] = experiment: Amphetamine-stimulated locomotion and rearing in rats; format: in vivo; settings: for Minimum Effective Dose, amphetamine-stimulated locomotion and rearing: Rat (SD), PO
Experimental: Effects of exemplary low impact ampakines were also evaluated in mice for the ability to inhibit amphetamine-stimulated locomotor activity. Mice were placed in the locomotor chamber for 20 min to habituate, removed, injected with either vehicle or SCI recovery ampakine (CX717), and 5 min later injected with 2 mg/kg i.p. Amphetamine Mice were returned to the locomotor chamber 10 min later, and their activity measured for a further 15 min. In related studies, adult male CD1 mice or male Sprague-Dawley rats were acclimated in a test chamber for 20 minutes removed and dosed i.p. (mice) or orally (rats) with CX1739, vehicle, or a reference compound. Five (mice) or 10 (rats) were then injected with amphetamine (2 mg/kg, i.p.) or saline vehicle and were returned to the activity test chamber.

SMILES	Minimum Effective Dose, effect on induction of LTP in rat hippocampus (LTP in rat hippocampus)	d1 scores (discrimination index) compared to vehicle (Rat (Wistar); 0.3 mg/kg, 24 hour delay)	Minimum Effective Dose, novel object recognition memory (Rat (Wistar))	Minimum Effective Dose, radial arm maze - spatial memory (Rat (SD) [1])	Minimum Effective Dose, delayed match-to-sample test (Monkey (Rhesus))	Minimum Effective Dose, amphetamine-stimulated locomotion and rearing (Rat (SD) [2])	Effect on LTP after tetanic stimulation (LTP in rat hippocampus; 3 mg/kg, 15 minutes prior to tetanic stimulation)	Preference for novel object exploration compared with positive control (Rat (Wistar); 0.03 mg/kg)	Dose producing the maximal effect / optimal dose in the maze assays (Rat (SD) [1]; ip)	Task accuracy with the Best Dose of each subject (Monkey (Rhesus); sessions initiated 45 min after administration)	Amphetamine-stimulated rearing behavior in rats (Rat (SD) [2]; rats, all doses tested)
O=C(c1ccc2nonc2c1)N1CCOCC1 [CX717, 1-(benzofurazan-5-ylcarbonyl)morpholine]	2 mg/kg	significant increase	0.3 mg/kg	0.3 mg/kg	0.8 mg/kg	1 mg/kg					
CN(C(=O)c1ccc2nonc2c1)C1CCOCC1 [CX1739, N-Methyl-N-tetrahydro-2H-pyran-4-yl-[2,1,3]-benzoxadiazole-5-carboxamide]	3 mg/kg		0.03 mg/kg	0.3 mg/kg	0.3 mg/kg	1 mg/kg	statistically significant increase in LTP	comparable to that of 3 mg/kg galantamine	0.3 mg/kg	statistically significant increase	modest reduction
